From article PMC5263201, “GABAA receptor occupancy by subtype selective GABAAα2,3 modulators: PET studies in humans” (Psychopharmacology, 2016)
Several values for one entry are separate records, joined by “and”; a condition that tells them apart may be missing. Equal entries are not always repeated. Where two headings read alike, the source gives them in different places.

Columns and labels:
human MT1 receptor = human MT1 receptor (Homo sapiens, UniProt P48039); assay: MT1 receptor GTPγS studies; type: biochemical
Chain of human MT1 receptor (P48039 whole entry): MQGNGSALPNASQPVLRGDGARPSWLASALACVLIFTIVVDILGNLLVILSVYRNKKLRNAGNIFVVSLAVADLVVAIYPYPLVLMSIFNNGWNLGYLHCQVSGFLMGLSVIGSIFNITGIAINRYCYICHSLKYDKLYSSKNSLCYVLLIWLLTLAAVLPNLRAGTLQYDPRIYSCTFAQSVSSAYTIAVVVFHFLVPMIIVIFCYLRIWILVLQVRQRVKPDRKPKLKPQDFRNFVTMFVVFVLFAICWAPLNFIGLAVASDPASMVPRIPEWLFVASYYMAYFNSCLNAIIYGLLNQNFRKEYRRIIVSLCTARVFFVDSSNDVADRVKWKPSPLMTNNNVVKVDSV

[1] = parameters: method as in Chen et al. 2014, 2015; settings: neurophysiological test battery; ref Chen et al. 2014, 2015; cited from earlier work
[2] = Safety and tolerability in the PET studies; type: in vivo, human
From the text: Safety and tolerability assessments included records of adverse events, vital signs (blood pressure, heart rate), Allen’s test, ECG, clinical chemistry, hematology assessments, and urinalysis.

[3] = Plasma pharmacokinetics after single oral doses in the PET studies; type: in vivo, human; settings: for C av,PET: average plasma concentration at time of PET
Experimental: Venous blood samples for determination of drug plasma concentrations were collected at approximately 15 min before [^11C]flumazenil injection and at 15 and 30 min and 3, 4, 6, 8, 10, 12, 16, 24, 36, and 48 h after drug administration, including three samples during PET measurement, at 1, 1.30, and 2 h after drug administration.
Calculations of the pharmacokinetic parameters included the maximum plasma concentration (C max), the time to the maximum plasma concentration (T max), and the average drug plasma concentration during the PET measurement (C av,PET) (division of the partial area corresponding to the start and end times of PET assessment, AUCPET, by the duration of the PET measurement). The pharmacokinetic calculations were performed using non-compartmental analysis using WinNonlin™, Pharsight Corporation.

[4] = Brain exposure in animals; type: in vivo
[5] = VAS alertness-sedation, Modified Wilson Sedation Scale, DSST; ref NCT00681317 and NCT00681915; cited from earlier work
[6] = tested on: approximately 160 different ligand binding assays; assay: Battery of approximately 160 different ligand binding assays at 10 μM; settings: active = ≥50% inhibition with an IC50 <1µM
[7] = tested on: GABAA receptors (benzodiazepine binding site); assay: PET with [11C]flumazenil (HRRT): GABAA receptor occupancy; type: in vivo, human; settings: for Occupancy (%) CER: cerebellum; for Occupancy (%) CER / Occupancy (%) OC / Occupancy (%) PUT / Occupancy (%) AMG: 1 h after drug administration; for Occupancy (%) OC: occipital cortex; for Occupancy (%) PUT: putamen; for Occupancy (%) AMG: amygdala
Experimental: Two separate open-label phase I PET studies were conducted in 2008–2009.
The initial study design included two sequential panels, with two subjects in each. The first panel was intended to obtain initial receptor occupancy values, to be used for dose selection in the second panel. […] The studies followed an adaptive design, i.e., doses and PET measurements were adjusted depending on the results of preceding measurements. […] To optimize quantification of the relationship between AZ6280 exposure and receptor occupancy, the number of subjects with the highest 40 mg dose was increased (Fig. 1).
The head of the subject was fixed using individual plaster helmet. A sterile physiological phosphate buffer (pH 7.4) solution containing [^11C]flumazenil was injected intravenously as a bolus during 2 s, immediately followed by flush with 10 ml saline. The injected radioactivity for [^11C]flumazenil was in the range of 330–350 MBq, (340 (9) MBq, mean, SD) in the study 1 and in the range of 317–363 MBq (335 (16) MBq) in the study 2. The specific radioactivity of the radioligand at time of injection ranged from 310 to 1465 GBq/μmol (730 (414) GBq/μmol, mean, SD) and from 464 to 1879 GBq/μmol (977 (424) GBq/μmol, mean, SD), for study 1 and study 2, respectively.
PET examinations were performed over 63 min (HRRT; Siemens/CTI). List mode data were reconstructed using the ordinary Poisson 3D ordered subset estimation maximization algorithm, with 10 iterations and 16 subsets including modeling of the point spread function (Varrone et al. [2009]) into a 4D PET image containing 33 consecutive time frames (9 × 10 s, 2 × 15 s, 3 × 20 s, 4 × 30 s, 4 × 60 s, 4 × 180 s, 7 × 360 s) with a 3D array of 256 × 256 × 207 voxels having a size of 1.22 × 1.22 × 1.22 mm.
The anatomical brain regions were delineated manually on the MR images using in-house image analysis software. The regions included cortical and striatal subregions, thalamus, cerebellum, limbic regions, pons, and whole brain. The following four regions were selected in the final analysis: The occipital cortex and cerebellum were chosen because of the highest GABAA receptor binding by [^11C]flumazenil and good imaging statistics and preferential distribution of α1/α2 receptor subtypes; the amygdala was chosen because of its role in the brain circuits involved in anxiety and putamen for preferential α1/α2/α3 versus α5 receptor subtypes (Lingford-Hughes et al. [2002]; Fatemi et al. [2013]; Waldvogel and Faull [2015]). For the pons, the ROI was drawn on horizontal projection on the six central slices. […] The concentration of radioactivity in each ROI, calculated for each sequential time frame and corrected for ^11C decay, was plotted versus time (TACs).
An index of neuronal GABAA receptor density or binding potential (BPND) was calculated using the simplified reference tissue model (Lammertsma and Hume [1996]) and pons as a reference region. The calculated receptor occupancy (%) was then correlated to drug exposure according to the following equation:1 Occupancy=Occmax×Cav,PET/Ki,plasma+Cav,PET
where Occmax is the maximal occupancy induced by drug, C av,PET is the total drug plasma concentration, and K i,plasma is the inhibition constant corresponding to the drug plasma concentration required for half-maximum receptor occupancy. Non-linear least squares curve fitting of the relationship between drug plasma concentration and receptor occupancy was performed using Matlab R2007b (http://de.mathworks.com). Regional data were fitted simultaneously to obtain a single estimate of K i,plasma and regionally different estimates of Occmax. Best fit estimate and confidence interval (95% CI) were obtained on the logarithmic scale.

[8] = AZD7325 single oral dose 0.2 mg

CCCNC(=O)c1nnc2c(-c3c(F)cccc3OC)cccc2c1N [AZD7325]
Emax (human MT1 receptor): 90%
receptor occupancy up to which no cognitive or hypnotic side effects were observed [1]: up to 80%
receptor occupancy at the doses/exposure at which adverse events were reported ([2]; AZD7325 5, 20 and 30 mg, AZD6280 20 mg and above): > 70%
high receptor occupancy reached without obvious sedative effects ([2]; PET studies): > 70%
CNS-related AEs ([2]; reported by three subjects at 20 and 30 mg and in one subject both at 20 and at 5 mg): dizziness, feeling hot, anhedonia, and hypoesthesia
C av,PET [3, 8]: 1.74 nM and 2.93 nM
Cmax ([3]; AZD7325 single oral dose 0.2 mg, individual subjects, read-out: C max): 4.12 nM
T max ([3]; AZD7325 single oral dose 1 mg, individual subjects): 1.0 h
Cmax ([3]; AZD7325 single oral dose 1 mg, individual subjects, read-out: C max): 5.19 nM and 12.8 nM
T max ([3]; AZD7325 single oral dose 2 mg, individual subjects): 1.1 h
Cmax ([3]; AZD7325 single oral dose 2 mg, individual subjects, read-out: C max): 5.19 nM and 21.4 nM
C av,PET ([3]; AZD7325 single oral dose 5 mg): 46.28 nM and 39.22 nM
T max ([3]; AZD7325 single oral dose 5 mg, individual subjects): 1.0 h
Cmax ([3]; AZD7325 single oral dose 5 mg, individual subjects, read-out: C max): 44 nM
Cmax ([3]; AZD7325 single oral dose 20 mg, individual subjects, read-out: C max): 302 nM
C av,PET ([3]; AZD7325 single oral dose 30 mg): 265.25 nM
Cmax ([3]; human, plasma, oral, range over all doses and subjects, read-out: range for peak exposures, Cmax): 0.81 to 109 ng/mL
Tmax ([3]; human, plasma, po, 0.2 mg, AZD7325 single oral dose 0.2 mg, individual subjects): 0.5 h
Cmax ([3]; human, plasma, po, 0.2 mg, AZD7325 single oral dose 0.2 mg, individual subjects, read-out: C max): 2.29 nM
Tmax ([3]; human, plasma, po, 1 mg, AZD7325 single oral dose 1 mg, individual subjects): 1.8 h
Tmax ([3]; human, plasma, po, 2 mg, AZD7325 single oral dose 2 mg, individual subjects): 1.3 h
Cmax ([3]; human, plasma, po, 5 mg, AZD7325 single oral dose 5 mg, individual subjects, read-out: C max): 50.2 nM
Tmax ([3]; human, plasma, po, 20 mg, AZD7325 single oral dose 20 mg, individual subjects): 3 h
Cmax ([3]; human, plasma, po, 20 mg, AZD7325 single oral dose 20 mg, individual subjects, read-out: C max): 213 nM
Tmax ([3]; human, plasma, po, 30 mg, AZD7325 single oral dose 30 mg, individual subject): 2.2 h
Cmax ([3]; human, plasma, po, 30 mg, AZD7325 single oral dose 30 mg, individual subject, read-out: C max): 308 nM
brain exposure [4]: good brain exposure
relationship between dose and alertness or cognitive performance [5]: no significant relationship
activity in the battery of ligand binding assays [6]: only assays in which either compound was active were the melatonin Type 1 and Type 2 receptors
calculated GABAA receptor occupancy at the highest doses ([7]; 20–30 mg AZD7325, occipital cortex and cerebellum): over 80%
Occupancy (%) CER [7, 8]: −5% and 3%
Occupancy (%) OC [7, 8]: −8% and 0.5%
Occupancy (%) CER ([7]; AZD7325 single oral dose 1 mg): 43% and 25%
Occupancy (%) CER ([7]; AZD7325 single oral dose 2 mg): 45% and 60%
Occupancy (%) OC ([7]; AZD7325 single oral dose 2 mg): 24% and 42%
Occupancy (%) PUT ([7]; AZD7325 single oral dose 2 mg): 28% and 26%
Occupancy (%) AMG ([7]; AZD7325 single oral dose 5 mg): 16% and 26%
Occupancy (%) CER ([7]; AZD7325 single oral dose 5 mg): 85% and 82%
Occupancy (%) OC ([7]; AZD7325 single oral dose 5 mg): 77% and 67%
Occupancy (%) PUT ([7]; AZD7325 single oral dose 5 mg): 40% and 37%
Occupancy (%) CER ([7]; AZD7325 single oral dose 20 mg): 77% and 95%
Occupancy (%) OC ([7]; AZD7325 single oral dose 20 mg): 75% and 85%
Occupancy (%) PUT ([7]; AZD7325 single oral dose 20 mg): 41% and 46%
Occupancy (%) AMG ([7]; AZD7325 single oral dose 30 mg): 37%
Occupancy (%) CER ([7]; AZD7325 single oral dose 30 mg): 89%
Occupancy (%) OC ([7]; AZD7325 single oral dose 30 mg): 82%
Occupancy (%) PUT ([7]; AZD7325 single oral dose 30 mg): 52%
